Laboratory results taken from PMC10243363 (ACS chemical neuroscience, 2022).
Counter-ions that a name gives are not always drawn. Like-named read-outs stand apart in the source and are kept apart here.

Legend:
DOR = DOR (Mus musculus, UniProt P32300); test: [35S]-GTPγS binding assay, mDOR-CHO membrane; format: biochemical; conditions: for DOR %Emax: %Emax = 100 defined using 5 μM SNC80; for DOR %Emax / EC50: mean ± SEM; for EC50: read-out: DOR EC50
MOR [1] = target: T1, MOR (Mus musculus, UniProt P42866); test: Competitive radioligand binding assay, MOR; conditions: ratio of Ki DOR/MOR
mice [2] = test: Warm-water tail immersion; format: in vivo, mouse; conditions: for Antinociception potency ED50 (95% CL): 20 min after injection; for Blocking of the antinociception of 0.1 mg/kg NMF by selective antagonist: nor-BNI, β-FNA 10 mg/kg s.c. 24 h prior, NTI 15 mg/kg s.c. 30 min prior; for Time of peak antinociceptive effect: time-course study; for Antinociceptive effect (%MPE) in single-dose screening: 20 min, vs vehicle
KOR [3] = target: T2, KOR (Mus musculus, UniProt P33534); test: Competitive radioligand binding assay, KOR; conditions: for Selectivity D/K: ratio of Ki DOR/KOR; for Selectivity M/K: ratio of Ki MOR/KOR
MOR [4] = target: T1, MOR; test: [35S]-GTPγS binding assay, mMOR-CHO membrane; format: biochemical; conditions: for MOR %Emax: %Emax = 100 defined using Emax of 3 μM DAMGO; for MOR %Emax / EC50: mean ± SEM; for EC50: read-out: MOR EC50
KOR [5] = target: T2, KOR; test: [35S]-GTPγS binding assay, mKOR-CHO membrane; format: biochemical; conditions: mean ± SEM; for KOR %Emax: %Emax = 100 defined using 5 μM U50,488H; for EC50: read-out: KOR EC50
[6] = cited from earlier work
[7] = Caco-2 permeability assay; conditions: human, Caco-2
[8] = Weight change under chronic administration; conditions: 10 mg/kg s.c. twice daily, mice
mice [9] = test: Respiration by whole-body plethysmography; format: in vivo, mouse; conditions: 0.1 mg/kg
rats = conditions: rat, in vivo, iv
Caco-2 cell monolayer = test: Caco-2 permeability assay; conditions: 10 μM; ± SEM
mice [10] = test: Tolerance and cross tolerance; conditions: day 5; 0.1 mg/kg NMF vs 10 mg/kg morphine
mice [11] = test: Spontaneous locomotor activity; conditions: 30 min
[12] = cited from earlier work; remark: listed apart in the source
[13] = 0.03 mg/kg; cited from earlier work
mice [14] = conditions: cited from earlier work
monkeys = conditions: 0.001 mg/kg; cited from earlier work
[15] = 0.003 mg/kg; cited from earlier work

| Compound | DOR %Emax (DOR) | EC50 (DOR) | Selectivity D/M (MOR [1]) | Selectivity D/K (KOR [3]) | Selectivity M/K (KOR [3]) | MOR %Emax (MOR [4]) | EC50 (MOR [4]) | KOR %Emax (KOR [5]) | EC50 (KOR [5]) | other results |
| --- | --- | --- | --- | --- | --- | --- | --- | --- | --- | --- |
| Cl.O=C(/C=C/c1ccoc1)N[C@@H]1CC[C@@]2(O)[C@H]3Cc4ccc(O)c5c4[C@@]2(CCN3CC2CC2)[C@H]1O5 [Compound 10, (2E)-N-[6β-17-(Cyclopropylmethyl)-3,14-dihydroxy-4,5α-epoxy-morphinan-6-yl]-3-(3-furanyl)-2-propenamide hydrochloride] | 103 ± 11% | 24.8 ± 4.7 nM | 15 | 26 | 1.8 | 40.8 ± 2.2% | 1.36 ± 0.14 nM | 95.2 ± 4.9% | 0.36 ± 0.02 nM | Antinociception potency ED50 (95% CL) (mice [2]; mice, s.c.): 2.414 (1.720 - 3.388) mg/kg |
| CC[C@@H]1CN2CCc3c([nH]c4cccc(OC)c34)[C@H]2C[C@@H]1/C(=C\OC)C(=O)OC [speciociliatine] |  |  |  |  |  |  |  |  |  | PPB [6]: 90-99% |
| Oc1ccc2c3c1O[C@H]1c4[nH]c5c(c4C[C@@]4(O)[C@@H](C2)N(CC2CC2)CC[C@]314)C[C@@]1(O)[C@H]2Cc3ccc(O)c4c3[C@@]1(CCN2CC1CC1)[C@H]5O4 [nor-BNI, reference compound] |  |  |  |  |  |  |  |  |  | Blocking of the antinociception of 0.1 mg/kg NMF by selective antagonist (mice [2]): able to reduce the antinociception |
| mitragynine |  |  |  |  |  |  |  |  |  | PPB [6]: 90-99% |
| Oc1ccc2c3c1O[C@H]1c4[nH]c5ccccc5c4C[C@@]4(O)[C@@H](C2)N(CC2CC2)CC[C@]314 [NTI, reference compound] |  |  |  |  |  |  |  |  |  | Blocking of the antinociception of 0.1 mg/kg NMF by selective antagonist (mice [2]): able to reduce the antinociception |
| Cl.O=C(/C=C/c1ccoc1)N[C@@H]1CC[C@@]2(O)[C@H]3Cc4cccc5c4[C@@]2(CCN3CC2CC2)[C@H]1O5 [Compound 14, (2E)-N-[6β-17-(Cyclopropylmethyl)-4,5α-epoxy-14-hydroxy-morphinan-6-yl]-3-(3-furanyl)-2-propenamide hydrochloride] | 107 ± 13% | 1500 ± 140 nM | 14 | 345 | 26 | 27.7 ± 1.1% | 167 ± 23 nM | 97.9 ± 2.4% | 46 ± 6.8 nM | Antinociception potency ED50 (95% CL) (mice [2]; mice, s.c.): 3.827 (1.224 -11.97) mg/kg |
| CC(C)NCC(O)COc1cccc2ccccc12 (stereo not drawn) [Propranolol] |  |  |  |  |  |  |  |  |  | Papp A→B at 10 µM [7]: 23.8 ± 0.4 ×10⁻⁶ cm/s; Papp B→A at 10 µM [7]: 25.6 ± 0.7 ×10⁻⁶ cm/s |
| CN1CC[C@]23c4c5ccc(O)c4O[C@H]2[C@@H](O)C=C[C@H]3[C@H]1C5 [Morphine, reference compound] |  |  |  |  |  |  |  |  |  | Duration of antinociception (mice [2]; 10 mg/kg s.c., mice): approximately 3 hours; Time of peak antinociceptive effect (mice [2]; s.c., mice): around 0.5 h; Weight change [8]: lost weight significantly after only one day |
| Cl.O=C(/C=C/c1ccoc1)N[C@H]1CC[C@@]2(O)[C@H]3Cc4cccc5c4[C@@]2(CCN3CC2CC2)[C@H]1O5 [Compound 13, (2E)-N-[6α-17-(Cyclopropylmethyl)-4,5α-epoxy-14-hydroxy-morphinan-6-yl]-3-(3-furanyl)-2-propenamide hydrochloride] | 102 ± 8% | 714 ± 87 nM | 0.9 | 1.7 | 1.9 | 22.8 ± 2.1% | 283 ± 49 nM | 103 ± 2% | 135 ± 25 nM | Antinociceptive effect (%MPE) in single-dose screening (mice [2]; 10 mg/kg s.c., mice): absence of antinociception |
| COC(=O)/C=C/C(=O)N[C@@H]1CC[C@@]2(O)[C@H]3Cc4ccc(O)c5c4[C@@]2(CCN3CC2CC2)[C@H]1O5 [β-FNA, reference compound] |  |  |  |  |  |  |  |  |  | Blocking of the antinociception of 0.1 mg/kg NMF by selective antagonist (mice [2]): not able to block the antinociception |
| CN(C(=O)/C=C/c1ccoc1)[C@@H]1CC[C@@]2(O)[C@H]3Cc4cccc5c4[C@@]2(CCN3CC2CC2)[C@H]1O5.Cl [Compound 16, (2E)-N-[6β-17-(Cyclopropylmethyl)-4,5α-epoxy-14-hydroxy-morphinan-6-yl]-3-(3-furanyl)-N-methyl-2-propenamide hydrochloride] | 107 ± 8% | 2100 ± 400 nM | 8.1 | 343 | 42 | 17.5 ± 4.4% | 1800 ± 1100 nM | 94.6 ± 2.9% | 59 ± 7.1 nM | Antinociception potency ED50 (95% CL) (mice [2]; mice, s.c.): 1.610 (1.057 - 2.452) mg/kg |
| CN(C(=O)/C=C/c1ccoc1)[C@H]1CC[C@@]2(O)[C@H]3Cc4cccc5c4[C@@]2(CCN3CC2CC2)[C@H]1O5.Cl [Compound 15, (2E)-N-[6a-17-(Cyclopropylmethyl)-4,5a-epoxy-14-hydroxy-morphinan-6-yl]-3-(3-furanyl)-N-methyl-2-propenamide hydrochloride] | 108 ± 7% | 242 ± 28 nM | 12 | 249 | 21 | 55.8 ± 2.9% | 132 ± 10 nM | 98.4 ± 2.4% | 2.52 ± 0.38 nM | Antinociception potency ED50 (95% CL) (mice [2]; mice, s.c.): 0.341 (0.196 - 0.604) mg/kg |
| CN(C(=O)/C=C/c1ccoc1)[C@@H]1CC[C@@]2(O)[C@H]3Cc4ccc(O)c5c4[C@@]2(CCN3CC2CC2)[C@H]1O5.Cl [Compound 11, (2E)-N-[6β-17-(Cyclopropylmethyl)-3,14-dihydroxy-4,5α-epoxy-morphinan-6-yl]-3-(3-furanyl)-N-methyl-2-propenamide hydrochloride] |  |  |  |  |  |  |  |  |  | Effects on respiration (frequency, minute volume, tidal volume) (mice [9]): no significant effects on the respiration; Reinforcing effect in self-administration (number of infusions vs saline) (rats): non-reinforcer; Duration of antinociception (mice [2]; 0.1 mg/kg s.c., mice): approximately 3 hours; Calculated ED90 of antinociception (mice [2]; mice, s.c.): 0.1 mg/kg; Antinociception potency ED50 (95% CL) (mice [2]; mice, s.c.): 0.037 (0.014 - 0.096) mg/kg; Time of peak antinociceptive effect (mice [2]; s.c., mice): around 0.5 h; B-A Permeability (Caco-2 cell monolayer): 31.8 ± 0.8 x10^−6 cm/s; Antinociceptive effect in morphine-tolerated mice (cross tolerance) (mice [10]): retained a higher antinociceptive effect than morphine; Activity-reducing (sedative) effects on locomotor activity (mice [11]; 0.1 mg/kg or 0.5 mg/kg s.c.): no significant activity-reducing effects; Hyperactivity in locomotor activity test (mice [11]; s.c.): no significant hyperactivity |
| CNC(=C[N+](=O)[O-])NCCSCc1ccc(CN(C)C)o1 [Ranitidine] |  |  |  |  |  |  |  |  |  | Papp A→B at 10 µM [7]: 0.5 ± 0.02 ×10⁻⁶ cm/s; %fa: extent of absorption in humans [12]: 50% |
| CN(C(=O)/C=C/c1ccoc1)[C@@H]1CC[C@@]2(O)[C@H]3Cc4ccc(O)c5c4[C@@]2(CCN3CC2CC2)[C@H]1O5 [Compound 12, (2E)-N-[6β-17-(Cyclopropylmethyl)-3,14-dihydroxy-4,5α-epoxy-morphinan-6-yl]-3-(3-furanyl)-N-methyl-2-propenamide hydrochloride] | moderate-to-high efficacy |  |  |  |  |  |  |  |  | Emax (DOR; read-out: DOR %Emax): 65.7 ± 6.4%; Action time [13]: less than 2 hours; Emax (MOR [4]; read-out: MOR %Emax): 30.3 ± 3.7%; Antinociceptive effect in morphine-tolerated mice (mice [14]): retained its antinociceptive effect; Respiratory depression (monkeys): did not induced respiratory depression; Action time [15]: 3 to 4 h |
| CC(CCc1ccccc1)NCC(O)c1ccc(O)c(C(N)=O)c1 (stereo not drawn) [Labetalol] |  |  |  |  |  |  |  |  |  | Papp A→B at 10 µM [7]: 18.5 ± 0.3 ×10⁻⁶ cm/s; Papp B→A at 10 µM [7]: 34.2 ± 0.4 ×10⁻⁶ cm/s; %fa: extent of absorption in humans [12]: 90%; %fa: extent of absorption in humans ([12]; listed as labetalol): 90% |
| Cl.O=C(/C=C/c1ccoc1)N[C@H]1CC[C@@]2(O)[C@H]3Cc4ccc(O)c5c4[C@@]2(CCN3CC2CC2)[C@H]1O5 [Compound 9, (2E)-N-[6α-17-(Cyclopropylmethyl)-3,14-dihydroxy-4,5α-epoxy-morphinan-6-yl]-3-(3-furanyl)-2-propenamide hydrochloride] | 108 ± 6% | 83.6 ± 28.8 nM | 16 | 10 | 0.6 | 25.9 ± 1.0% | 8.41 ± 0.98 nM | 73.7 ± 2.5% | 15.3 ± 1.9 nM | Antinociceptive effect (%MPE) in single-dose screening (mice [2]; 10 mg/kg s.c., mice): no significant increase of %MPE |
